Reference: patent publication US20250154197A1, “LIPOLYTIC PEPTIDES” (FUNDACIÓ HOSPITAL UNIVERSITARI VALL D'HEBRON - INSTITUT DE …, priority 2021, published 2025)
Where no end group is shown, it is not given here. [ ]: non-standard residue; d: D form. The star is where a group is joined. Propionyl = CCC(=O)*

Key:
3T3-L1 mouse adipocytes = test: Lipolytic activity: glycerol release in differentiated 3T3-L1 mouse adipocytes (12 h); assay type: cell-based; details: 3T3-L1 mouse adipocytes, 12 h
Description: JCRB9014-A) from Tebu-Bio (Tebu-bio, Barcelona, Spain). Briefly, mouse adipocytes (3T3-L1 cells) were cultured in 48 well plates as described previously (Saez-Lopez et al., 2020). Adipocytes were differentiated using cell culture reagents purchased from Tebu-Bio and following the manufacturer's instructions. At day of differentiation cells were treated in duplicates with vehicle (DMSO), Caffeine (100 μg/ml), and each of the peptides at the specified doses in Table 6a below. At the end of the experiment (12 h), supernatants were collected and glycerol content was measured using a Glycerol Assay Kit (Sigma) following manufacturer's instructions.

[1] = system: human subcutaneoous mature adipocytes; test: Lipolytic activity: glycerol release in human adipocytes (Lipolysis Assay kit); assay type: cell-based; details: human subcutaneous mature adipocytes

Substance	Lipolysis Activity measured as Glycerol (μM) release in media (3T3-L1 mouse adipocytes; 1 μg/ml)	Lipolysis Activity measured as Glycerol (μM) release in media (3T3-L1 mouse adipocytes; 10 μg/ml)	Lipolysis Activity measured as Glycerol (μM) release in media (3T3-L1 mouse adipocytes; 100 μg/ml)	Lipolysis Activity measured as Glycerol (μM) release in media ([1]; 25 μg/ml)	Lipolysis Activity measured as Glycerol (μM) release in media ([1]; 50 μg/ml)	Lipolysis Activity measured as Glycerol (μM) release in media ([1]; 100 μg/ml)
WDPEGVIF (H-[dW][dD][dP][dE]G[dV]I[dF]-OH; not fully specified (residue 7)) [GP3D-8 I X, N-term NH2, C-term COOH]	616 µM	465 µM	441 µM	–	–	–
TWDPEGVIF (H-[dT][dW][dD][dP][dE]G[dV][dI][dF]-OH; not fully specified) [GP3D-9 X, N-term NH2, C-term COOH]	–	–	493 µM	–	–	–
TWDPEGVIFY [GP3D-NH2] ([dT][dW][dD][dP][dE]G[dV][dI][dF][dY]-NH2; N-terminus assumed; SMILES CC[C@@H](C)[C@@H](NC(=O)[C@H](NC(=O)CNC(=O)[C@@H](CCC(=O)O)NC(=O)[C@H]1CCCN1C(=O)[C@@H](CC(=O)O)NC(=O)[C@@H](Cc1c[nH]c2ccccc12)NC(=O)[C@H](N)[C@H](C)O)C(C)C)C(=O)N[C@H](Cc1ccccc1)C(=O)N[C@H](Cc1ccc(O)cc1)C(N)=O) [N-term NH2, C-term CONH2]	506 µM	449 µM	368 µM	–	–	–
Ac-TWDPEGVIFY-NH2 (Ac-[dT][dW][dD][dP][dE]G[dV][dI][dF][dY]-NH2; SMILES CC[C@@H](C)[C@@H](NC(=O)[C@H](NC(=O)CNC(=O)[C@@H](CCC(=O)O)NC(=O)[C@H]1CCCN1C(=O)[C@@H](CC(=O)O)NC(=O)[C@@H](Cc1c[nH]c2ccccc12)NC(=O)[C@H](NC(C)=O)[C@H](C)O)C(C)C)C(=O)N[C@H](Cc1ccccc1)C(=O)N[C@H](Cc1ccc(O)cc1)C(N)=O) [GP3D-AcNH2, N-term CH3CONH, C-term CONH2]	606 µM	464 µM	472 µM	–	–	–
DPEGVFY (H-[dD][dP][dE]G[dV][dF][dY]-OH; SMILES CC(C)[C@@H](NC(=O)CNC(=O)[C@@H](CCC(=O)O)NC(=O)[C@H]1CCCN1C(=O)[C@H](N)CC(=O)O)C(=O)N[C@H](Cc1ccccc1)C(=O)N[C@H](Cc1ccc(O)cc1)C(=O)O) [GP3D-7 I II VIII, N-term NH2, C-term COOH]	485 µM	325 µM	340 µM	–	–	–
TWDPEGVIY (H-[dT][dW][dD][dP][dE]G[dV][dI][dY]-OH; not fully specified) [GP3D-9 IX, N-term NH2, C-term COOH]	–	–	356 µM	–	–	–
WDPEGVIFY (H-[dW][dD][dP][dE]G[dV]I[dF][dY]-OH; not fully specified (residue 7)) [GP3D-9 I, N-term NH2, C-term COOH]	–	–	344 µM	–	–	–
TWDPEVIFY (H-[dT][dW][dD][dP][dE][dV][dI][dF][dY]-OH; not fully specified) [GP3D-9 VI, N-term NH2, C-term COOH]	–	–	315 µM	–	–	–
WDPEG (H-[dW][dD][dP][dE]G-OH; SMILES N[C@H](Cc1c[nH]c2ccccc12)C(=O)N[C@H](CC(=O)O)C(=O)N1CCC[C@@H]1C(=O)N[C@H](CCC(=O)O)C(=O)NCC(=O)O) [GP3D-5 I VII VIII IX X, N-term NH2, C-term COOH]	368 µM	349 µM	398 µM	–	–	–
DPEGVLY (H-[dD][dP][dE]G[dV][dL][dY]-OH; SMILES CC(C)C[C@@H](NC(=O)[C@H](NC(=O)CNC(=O)[C@@H](CCC(=O)O)NC(=O)[C@H]1CCCN1C(=O)[C@H](N)CC(=O)O)C(C)C)C(=O)N[C@H](Cc1ccc(O)cc1)C(=O)O) [GP3D-DM3, N-term NH2, C-term COOH]	–	–	307 µM	–	–	–
WDPEGVY (H-[dW][dD][dP][dE]G[dV][dY]-OH; SMILES CC(C)[C@@H](NC(=O)CNC(=O)[C@@H](CCC(=O)O)NC(=O)[C@H]1CCCN1C(=O)[C@@H](CC(=O)O)NC(=O)[C@H](N)Cc1c[nH]c2ccccc12)C(=O)N[C@H](Cc1ccc(O)cc1)C(=O)O) [GP3D-7 I VIII IX, N-term NH2, C-term COOH]	–	314 µM	–	–	–	–
NDEGLFY (H-[dN][dD][dE]G[dL][dF][dY]-OH; SMILES CC(C)C[C@@H](NC(=O)CNC(=O)[C@@H](CCC(=O)O)NC(=O)[C@@H](CC(=O)O)NC(=O)[C@H](N)CC(N)=O)C(=O)N[C@H](Cc1ccccc1)C(=O)N[C@H](Cc1ccc(O)cc1)C(=O)O) [GP3DM-19, N-term NH2, C-term COOH]	–	–	–	87.1 µM	64.0 µM	123.3 µM
LN-LD-LP-LE-G-DL-LY (NDPEG[dL]Y) [GP3DM-17, N-term NH2, C-term COOH]	–	–	–	–	47.4 µM	53.6 µM
Ac-NDLEGLY-NH2 (Ac-[dN][dD][dL][dE]G[dL][dY]-NH2; SMILES CC(=O)N[C@H](CC(N)=O)C(=O)N[C@H](CC(=O)O)C(=O)N[C@H](CC(C)C)C(=O)N[C@H](CCC(=O)O)C(=O)NCC(=O)N[C@H](CC(C)C)C(=O)N[C@H](Cc1ccc(O)cc1)C(N)=O) [GP3DM-29, N-term CH3CONH, C-term CONH2]	–	–	–	123.8 µM	72.4 µM	131.9 µM
EtCONH-NDLEGLY (Propionyl-[dN][dD][dL][dE]G[dL][dY]-OH; SMILES CCC(=O)N[C@H](CC(N)=O)C(=O)N[C@H](CC(=O)O)C(=O)N[C@H](CC(C)C)C(=O)N[C@H](CCC(=O)O)C(=O)NCC(=O)N[C@H](CC(C)C)C(=O)N[C@H](Cc1ccc(O)cc1)C(=O)O) [GP3DM-26, N-term CH3CH2CONH, C-term COOH]	–	–	–	98.4 µM	140.0 µM	149.6 µM
TDPEGVIF (H-[dT][dD][dP][dE]G[dV][dI][dF]-OH; not fully specified) [GP3D-8 II X, N-term NH2, C-term COOH]	391 µM	434 µM	493 µM	–	–	–
NDLEGLY (H-[dN][dD][dL][dE]G[dL][dY]-OH; SMILES CC(C)C[C@@H](NC(=O)CNC(=O)[C@@H](CCC(=O)O)NC(=O)[C@@H](CC(C)C)NC(=O)[C@@H](CC(=O)O)NC(=O)[C@H](N)CC(N)=O)C(=O)N[C@H](Cc1ccc(O)cc1)C(=O)O) [GP3DM-21, N-term NH2, C-term COOH]	–	–	–	116.5 µM	116.7 µM	102.5 µM
LN-LD-LP-LE-G-LL-DY (NDPEGL[dY]) [GP3DM-18, N-term NH2, C-term COOH]	–	–	–	–	44.4 µM	63.5 µM
TWDPEGVI (H-[dT][dW][dD][dP][dE]G[dV][dI]-OH; not fully specified) [GP3D-8 IX X, N-term NH2, C-term COOH]	396 µM	383 µM	528 µM	–	–	–
LN-LD-DP-LE-G-LL-LY (ND[dP]EGLY) [GP3DM-15, N-term NH2, C-term COOH]	–	–	–	–	42.0 µM	47.2 µM
TWDPEG (H-[dT][dW][dD][dP][dE]G-OH; SMILES C[C@H](O)[C@@H](N)C(=O)N[C@H](Cc1c[nH]c2ccccc12)C(=O)N[C@H](CC(=O)O)C(=O)N1CCC[C@@H]1C(=O)N[C@H](CCC(=O)O)C(=O)NCC(=O)O) [GP3D-6 VII VIII IX X, N-term NH2, C-term COOH]	404 µM	327 µM	–	–	–	–
acetyl-hexapeptide-39 (Ac-SIYVAT-NH2) [Hexa-39, reference compound]	–	–	–	–	–	29.21 µM
DN-LD-LP-LE-G-LL-LY ([dN]DPEGLY) [GP3DM-13, N-term NH2, C-term COOH]	–	–	–	–	49.5 µM	42.1 µM
NDEGLY [GP3DM-22] (H-[dN][dD][dE]G[dL][dY]-OH; SMILES CC(C)C[C@@H](NC(=O)CNC(=O)[C@@H](CCC(=O)O)NC(=O)[C@@H](CC(=O)O)NC(=O)[C@H](N)CC(N)=O)C(=O)N[C@H](Cc1ccc(O)cc1)C(=O)O) [N-term NH2, C-term COOH]	–	–	–	52.1 µM	59.5 µM	131.9 µM
LN-DD-LP-LE-G-LL-LY (N[dD]PEGLY) [GP3DM-14, N-term NH2, C-term COOH]	–	–	–	–	53.1 µM	52.8 µM
NDEGLY [GP3DM-23] (H-[dN][dD][dE]G[dL][dY]-OH; SMILES CC(C)C[C@@H](NC(=O)CNC(=O)[C@@H](CCC(=O)O)NC(=O)[C@@H](CC(=O)O)NC(=O)[C@H](N)CC(N)=O)C(=O)N[C@H](Cc1ccc(O)cc1)C(=O)O) [N-term NH2, C-term COOH]	–	–	–	139.7 µM	97.7 µM	170.0 µM
